In ChEMBL document CHEMBL3259671, “From virtual to clinical: The discovery of PGN-1531, a novel antagonist of the prostanoid EP4 receptor” (Bioorg Med Chem Lett, 2014):
≈ marks a conversion by molar mass, not a printed value.

Assay: Solubility of the compound in 0.1 M phosphate buffer/[…] KCl at pH 7.4 after 24 hrs
Type: physicochemical
Conditions: not given

solubility at 24 h [µg/mL] | SMILES
0.2 (≈ 0.403 µM) | COc1ccc(-c2ccc(OCc3cc(C(=O)NS(=O)(=O)c4c(C)noc4C)oc3C)cc2)cc1
20 (≈ 38 µM) | Cc1ccccc1S(=O)(=O)NC(=O)c1cc(CNc2ccc(-c3ccc(OC(F)F)cc3)cc2)c(C)o1
30 (≈ 62.7 µM) | COc1ccc(-c2ccc(OCc3cc(C(=O)NS(=O)(=O)c4ccccc4)oc3C)cc2)nc1
2 (≈ 4.47 µM) | Cc1oc(C(=O)NS(=O)(=O)c2ccccc2)cc1COc1ccc(-c2ccccc2)cc1
90 (≈ 181 µM) | COc1ccc(-c2ccc(OCc3cc(C(=O)NS(=O)(=O)c4c(C)noc4C)oc3C)cc2)nc1
< 0.6 | Cc1oc(C(=O)NS(=O)(=O)c2ccccc2)cc1COc1ccc(-c2ccc(OC(F)F)cc2)cc1
7 (≈ 15.8 µM) | CCCS(=O)(=O)NC(=O)c1cc(COc2ccc(-c3ccc(OC)cc3)cc2)c(C)o1
< 0.6 | Cc1noc(C)c1S(=O)(=O)NC(=O)c1cc(COc2ccc(-c3ccc(OC(F)F)cc3)cc2)c(C)o1
300 (≈ 672 µM) | Cc1oc(C(=O)NS(=O)(=O)c2ccccc2)cc1CNc1ccc(-c2ccccc2)cc1
200 (≈ 392 µM) | COc1ccc(-c2ccc(OCc3cc(C(=O)NS(=O)(=O)c4c(C)noc4C)oc3C)cc2)c(C)c1
5 (≈ 10.2 µM) | COc1ccc(-c2ccc(OCc3cc(C(=O)NS(=O)(=O)c4ccc(C)cn4)oc3C)cc2)cc1
20 (≈ 40.5 µM) | COc1ccc(-c2ccc(OCc3cc(C(=O)NS(=O)(=O)c4ccc(O)cc4)oc3C)cc2)cc1
20 (≈ 43.4 µM) | Cc1ccccc1S(=O)(=O)NC(=O)c1cc(CNc2ccc(-c3ccccc3)cc2)c(C)o1
< 0.6 | COc1ccc(-c2ccc(OCc3cc(C(=O)NS(=O)(=O)c4ccc(CN)cc4)oc3C)cc2)cc1
10 (≈ 20.3 µM) | COc1ccc(-c2ccc(OCc3cc(C(=O)NS(=O)(=O)c4ccccc4C)oc3C)cc2)nc1 [BGC-20-1531 FREE BASE]
20 (≈ 37.8 µM) | COc1ccc(-c2ccc(OCc3cc(C(=O)NS(=O)(=O)CCCN4CCOCC4)oc3C)cc2)cc1
8 (≈ 16.8 µM) | COc1ccccc1-c1ccc(OCc2cc(C(=O)NS(=O)(=O)c3ccccc3)oc2C)cc1
20 (≈ 40.7 µM) | COc1ccc(-c2ccc(OCc3cc(C(=O)NS(=O)(=O)c4ccccc4)oc3C)cc2)c(C)c1
10 (≈ 22.5 µM) | COc1ccc(-c2ccc(OCc3cc(C(=O)NS(=O)(=O)N(C)C)oc3C)cc2)cc1
11 (≈ 23 µM) | COc1ccc(-c2ccc(OCc3cc(C(=O)NS(=O)(=O)c4ccccc4)oc3C)cc2)cc1

Assay: Intrinsic clearance in human hepatocytes
Type: ADME, cell-based, Hepatocyte
Conditions: read-out: CLH

CLint scaled [mL/min/kg] | SMILES
6.5 | COc1ccc(-c2ccc(OCc3cc(C(=O)[N-]S(=O)(=O)c4ccccc4C)oc3C)cc2)nc1.[Na+] [BGC-20-1531]

Assay: Intrinsic clearance in rat hepatocytes
Type: ADME, cell-based, Hepatocyte
Conditions: read-out: CLH

CLint scaled [mL/min/kg] | SMILES
2.7 | COc1ccc(-c2ccc(OCc3cc(C(=O)[N-]S(=O)(=O)c4ccccc4C)oc3C)cc2)nc1.[Na+] [BGC-20-1531]

Assay: Half life in po dosed rat
Type: ADME, organism-based
Conditions: in vivo

half-life [h] | SMILES
2.3 | COc1ccc(-c2ccc(OCc3cc(C(=O)[N-]S(=O)(=O)c4ccccc4C)oc3C)cc2)nc1.[Na+] [BGC-20-1531]

Assay: Bioavailability in rat
Type: ADME, organism-based
Conditions: in vivo

bioavailability [%] | SMILES
84 | COc1ccc(-c2ccc(OCc3cc(C(=O)[N-]S(=O)(=O)c4ccccc4C)oc3C)cc2)nc1.[Na+] [BGC-20-1531]

Assay: Permeability across human Caco2 cells
Type: ADME, cell-based
Conditions: Caco-2, read-out: permeability

Papp [×10⁻⁶ cm/s] | SMILES
14.5 | COc1ccc(-c2ccc(OCc3cc(C(=O)[N-]S(=O)(=O)c4ccccc4C)oc3C)cc2)nc1.[Na+] [BGC-20-1531]
